Reference: ChEMBL document CHEMBL1123970, “Ab initio molecular electrostatic potentials of perillartine analogues: implications for sweet-taste receptor recognition” (J Med Chem, 1988)

Assay: Compound was tasted for its sweet potency, expressed with relative to sucrose

Sweetness potency	SMILES
200	O/N=C/C1=CCC=CC1
55	O/N=C/C1=CCCC1
90	O/N=C/C1=CC=CCC1
225	COCC1=CCC(/C=N/O)=CC1
55	O/N=C/C1=CCCCC1
500	CC1=CCC(/C=N/O)=CC1
140	C/C=C(C)/C(C)=N/O
40	C/C=C(C)/C=N/O
